Measurements published in patent US20240018157A1, “CYCLIC COMPOUNDS AND METHODS OF USING SAME” (Schrödinger, Inc., priority 2019, published 2024).
Structures can show the parent of a compound that is named as a salt.

Assays:
[1] = biological target: full-length MALT1 protein His-MALT1(1-824) (Homo sapiens (Human), UniProt Q9UDY8); experiment: MALT1 protease assay, Assay 2 (1 nM MALT1, Ac-LRSR-AMC substrate); format: biochemical; details: 1 nM MALT1, 50 μM Ac-LRSR-AMC, 2 h pre-incubation, 8 hr incubation at RT
Chain of full-length MALT1 protein His-MALT1(1-824) (Q9UDY8 whole entry): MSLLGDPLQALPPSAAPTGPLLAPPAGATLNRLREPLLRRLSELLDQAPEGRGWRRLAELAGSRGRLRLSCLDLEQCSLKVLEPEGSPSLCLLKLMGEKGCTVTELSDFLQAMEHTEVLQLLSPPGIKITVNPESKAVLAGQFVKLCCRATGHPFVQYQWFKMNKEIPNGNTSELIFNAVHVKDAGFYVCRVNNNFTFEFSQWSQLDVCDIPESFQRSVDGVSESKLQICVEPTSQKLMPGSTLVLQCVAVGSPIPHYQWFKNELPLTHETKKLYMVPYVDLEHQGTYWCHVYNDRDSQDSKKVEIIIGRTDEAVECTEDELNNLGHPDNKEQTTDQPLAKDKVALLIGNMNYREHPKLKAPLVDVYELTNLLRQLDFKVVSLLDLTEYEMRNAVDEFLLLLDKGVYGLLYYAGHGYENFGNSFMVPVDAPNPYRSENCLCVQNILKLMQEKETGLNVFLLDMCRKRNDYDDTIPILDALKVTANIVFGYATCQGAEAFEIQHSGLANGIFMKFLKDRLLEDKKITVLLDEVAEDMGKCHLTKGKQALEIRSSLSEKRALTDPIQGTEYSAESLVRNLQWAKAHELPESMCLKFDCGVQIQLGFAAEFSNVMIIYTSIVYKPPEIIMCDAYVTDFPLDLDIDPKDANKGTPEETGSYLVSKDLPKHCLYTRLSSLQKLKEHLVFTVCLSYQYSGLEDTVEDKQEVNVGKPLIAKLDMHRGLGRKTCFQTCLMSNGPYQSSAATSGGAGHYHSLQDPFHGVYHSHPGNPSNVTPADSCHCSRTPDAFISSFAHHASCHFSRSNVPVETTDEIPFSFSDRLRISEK
Method: MALT1 protease activity was assessed in an in vitro assay using a tetrapeptide as substrate and full-length MALT1 protein His-MALT1(1-824) purified from baculovirus-infected insect cells.
The final assay buffer includes 1 nM (Assay 2) or 2 nM (Assay 1) of MALT1 full-length protein, 50 μM Ac-LRSR-AMC substrate, 50 mM Tris pH 7.5, 600 mM Sodium Citrate, 1 mM DTT, 1 mM EDTA, and 0.05% BSA in 384-well plate format using black microtiter square well plates (Optiplate 384-F, Perkin Elmer).
Test compounds were dissolved in 100% DMSO at stock of 10 mM, with final DMSO concentration 0.1%. Test compounds were pre-incubated with MALT1 protein for 2 h at room temperature. Substrate was added after the pre-incubation and fluorescence signal was measured using Envision at excitation 355 nm and emission 460 nm after 8 hr incubation at RT.
The fluorescence units were transformed to percentage of remaining activity by using the high control (HC, median of fluorescence signal from wells containing MALT1 protein, substrate, and DMSO) and low control (LC, median of fluorescence signal from wells with substrate only) with the formula below: […]
IC50 and Hill coefficient were obtained using Graph Pad Prism (Graph Pad software, Inc, USA) with non-linear regression analysis.

[2] = test system: IL10 secretion, OCI-LY10 cells; experiment: Human IL10 secretion assay, Assay 1 (HTRF); format: cell-based; details: 24 h incubation, read-out: IL-10 Secretion IC50 [nM] Assay 1
Method: (§1) IL10 is one of the cytokines that are regulated via activation of NF-kB signaling. For example, in ABC-DLBCL cell lines, the activated NF-kB signaling leads to increased IL10 secretion. Inhibition of NF-kB signaling has been shown leading to decreased IL10 secretion.
Assay 1: OCI-LY10 cells were seeded in IMEM supplemented with 20% fetal bovine serum at 3×10^5 cells per well in 96-well round bottom plates (Corning 3799, Corning), treated with 100 nL of 3-fold serial compound dilutions, starting at 10 mM. The final vehicle concentration was 0.1% DMSO in all wells. After 24 h incubation, the cells were transferred to 96-PCR plates (Axygen: PCR-96-FLT-C) and centrifuged, then 16 μL of cell culture media was transferred to HTRF plates and IL10 levels were measured using human IL-10 Assay Kits (Cisbio) using HTRF format. The signals were transformed to percentage of remaining activity by using the high control (HC, median of signal from wells containing cells treated with DMSO) and low control (LC, median of signal from wells with no cells). IC50 values (nM) were determined using 4-parametric curve-fitting and Hill coefficient were obtained using Graph Pad Prism (Graph Pad software, Inc, USA) with non-linear regression analysis.

[3] = test system: IL10 secretion, OCI-LY10 cells; experiment: Human IL10 secretion assay, Assay 2 (Meso Scale Discovery); format: cell-based; details: 24 h incubation, MSD, read-out: IL-10 Secretion IC50 [nM] Assay 2
Method: as §1
Assay 2: OCI-LY10 cells were seeded in IMEM supplemented with 20% fetal bovine serum at 4.8×10^5 cells per 160 μL per well in 96-well V-bottom cell culture plates (coming, 3894), treated with 120 nL of 3-fold serial compound dilutions, starting at 4 mM. The final vehicle concentration was 0.075% DMSO in all wells. After a 24 h incubation, human IL-10 pre-coated plates (Meso Scale Discovery) were washed 3 times with PBST, and 50 μL culture medium was aspirated into the MSD plate and incubated at 4° C. overnight. The supernatant was then discarded and the wells were washed 3 times with PBST. SULFO-TAG Anti-human IL-10 Antibody (50×) was diluted 50 fold according to the Meso Scale Protocol, then 25 μL of SULFO-TAG Anti-human IL-10 Antibody (1×) was added. After 2 h of incubation at RT, the supernatant was discarded and the well was washed 3 times with PBST. 2× read buffer was added and the signal was read on an MSD Sector S600. The effect of a particular compound on IL10 secretion is shown relative to the effect of DMSO; set as 100%. IC50 values (nM) were determined using 4-parametric curve-fitting.

| SMILES | IC50 [1] [nM] | IC50 [2] [nM] | IC50 [3] [nM] |
| --- | --- | --- | --- |
| CC1(C(F)(F)F)CN(C(=O)Nc2cnc(-n3nccn3)c(Cl)c2)c2cnc3cc(C(F)F)nn3c21 (stereo not shown) [Compound 62] | 10 to 100 | 10 to 100 |  |
| C[C@@]1(C(F)(F)F)CN(C(=O)Nc2cnc(-n3nccn3)c(C(F)F)c2)c2cnc3cc(Cl)nn3c21 [compound 35, (R)-2-chloro-N-(5-(difluoromethyl)-6-(2H-1,2,3-triazol-2-yl)pyridin-3-yl)-8-methyl-8-(trifluoromethyl)-7,8-dihydro-6H-pyrazolo[1,5-a]pyrrolo[2,3-e]pyrimidine-6-carboxamide] |  | 10 to 100 | 10 to 100 |
| C[C@@]1(C(F)(F)F)CN(C(=O)Nc2cnc(-n3nccn3)c(Cl)c2)c2cnc3cc(F)nn3c21 [compound 39, (R)-N-(5-chloro-6-(2H-1,2,3-triazol-2-yl)pyridin-3-yl)-2-fluoro-8-methyl-8-(trifluoromethyl)-7,8-dihydro-6H-pyrazolo[1,5-a]pyrrolo[2,3-e]pyrimidine-6-carboxamide] |  | 10 to 100 | 10 to 100 |
| C[C@@]1(C(F)(F)F)CN(C(=O)Nc2cnc(-n3nccn3)c(C(F)(F)F)c2)c2cnc3cc(Cl)nn3c21 [compound 40, (R)-N-(6-(2H-1,2,3-triazol-2-yl)-5-(trifluoromethyl)pyridin-3-yl)-2-chloro-8-methyl-8-(trifluoromethyl)-7,8-dihydro-6H-pyrazolo[1,5-a]pyrrolo[2,3-e]pyrimidine-6-carboxamide] |  | 10 to 100 | 10 to 100 |
| C[C@@]1(C(F)(F)F)CN(C(=O)Nc2cnc(OC(F)F)c(Cl)c2)c2cnc3cc(Cl)nn3c21 [compound 49, (R)-2-chloro-N-(5-chloro-6-(difluoromethoxy)pyridin-3-yl)-8-methyl-8-(trifluoromethyl)-7,8-dihydro-6H-pyrazolo[1,5-a]pyrrolo[2,3-e]pyrimidine-6-carboxamide] |  | 10 to 100 | 10 to 100 |
| C[C@@]1(C(F)(F)F)CN(C(=O)Nc2cnnc(C(F)(F)F)c2)c2cnc3cc(Cl)nn3c21 [compound 59, (R)-11-chloro-3-methyl-3-(trifluoromethyl)-N-[6-(trifluoromethyl)pyridazin-4-yl]-1,5,8,12-tetrazatricyclo[7.3.0.02,6]dodeca-2(6),7,9,11-tetraene-5-carboxamide] | 10 to 100 | 10 to 100 |  |
| C[C@@]1(C(F)(F)F)CN(C(=O)Nc2cc(C#N)nc(C(F)(F)F)c2)c2cnc3cc(Cl)nn3c21 [compound 61, (R)-2-chloro-N-(2-cyano-6-(trifluoromethyl)pyridin-4-yl)-8-methyl-8-(trifluoromethyl)-7,8-dihydro-6H-pyrazolo[1,5-a]pyrrolo[2,3-e]pyrimidine-6-carboxamide] | 10 to 100 | 100 to 1000 |  |
| C[C@@]1(C(F)(F)F)CN(C(=O)Nc2cnn(C(F)F)c2)c2cnc3cc(Cl)nn3c21 [compound 64, (R)-2-chloro-N-(1-(difluoromethyl)-1H-pyrazol-4-yl)-8-methyl-8-(trifluoromethyl)-7,8-dihydro-6H-pyrazolo[1,5-a]pyrrolo[2,3-e]pyrimidine-6-carboxamide] | 10 to 100 | 10 to 100 |  |
| C[C@@]1(C(F)(F)F)CN(C(=O)Nc2cnc(C(O)C3CC3)c(Cl)c2)c2cnc3cc(Cl)nn3c21 (stereo partly drawn) [compound 72, (8R)-2-chloro-N-(5-chloro-6-(cyclopropyl(hydroxy)methyl)pyridin-3-yl)-8-methyl-8-(trifluoromethyl)-7,8-dihydro-6H-pyrazolo[1,5-a]pyrrolo[2,3-e]pyrimidine-6-carboxamide] | 10 to 100 | 100 to 1000 |  |
| C[C@H](O)COc1ncc(NC(=O)N2C[C@@](C)(C(F)(F)F)c3c2cnc2cc(Cl)nn32)cc1Cl [compound 73, (R)-2-chloro-N-(5-chloro-6-((S)-2-hydroxypropoxy)pyridin-3-yl)-8-methyl-8-(trifluoromethyl)-7,8-dihydro-6H-pyrazolo[1,5-a]pyrrolo[2,3-e]pyrimidine-6-carboxamide] | 10 to 100 | 10 to 100 |  |
| COc1c(C)cc(NC(=O)N2C[C@@](C)(C(F)(F)F)c3c2cnc2cc(Cl)nn32)nc1O[C@H]1CCNC1 [compound 82, (R)-2-chloro-N-(5-methoxy-4-methyl-6-(((S)-pyrrolidin-3-yl)oxy)pyridin-2-yl)-8-methyl-8-(trifluoromethyl)-7,8-dihydro-6H-pyrazolo[1,5-a]pyrrolo[2,3-e]pyrimidine-6-carboxamide formate] | 10 to 100 | 100 to 1000 |  |
| C[C@H]1COC(=O)N1c1cc(NC(=O)N2C[C@@](C)(C(F)(F)F)c3c2cnc2cc(Cl)nn32)cc(C(F)(F)F)n1 [compound 84, (R)-2-chloro-8-methyl-N-(2-((S)-4-methyl-2-oxooxazolidin-3-yl)-6-(trifluoromethyl)pyridine-4-yl)-8-(trifluoromethyl)-7,8-dihydro-6H-pyrazolo[1,5-a]pyrrolo[2,3-e]pyrimidine-6-carboxamide] | 10 to 100 | 100 to 1000 |  |
| C[C@@]1(C(F)(F)F)CN(C(=O)Nc2cnc(-n3nccn3)c(C#N)c2)c2cnc3cc(F)nn3c21 [compound 91, (R)-N-(5-cyano-6-(2H-1,2,3-triazol-2-yl)pyridin-3-yl)-2-fluoro-8-methyl-8-(trifluoromethyl)-7,8-dihydro-6H-pyrazolo[1,5-a]pyrrolo[2,3-e]pyrimidine-6-carboxamide] |  |  | 10 to 100 |
| COc1cnn(-c2ncc(NC(=O)N3C[C@@](C)(C(F)(F)F)c4c3cnc3cc(Cl)nn43)cc2Cl)n1 [compound 92, (R)-2-chloro-N-(5-chloro-6(4-methoxy-2H-1,2,3-triazol-2-yl)pyridin-3-yl)-8-methyl-8-(trifluoromethyl)-7,8-dihydro-6H-pyrazolo[1,5-a]pyrrolo[2,3-e]pyrimidine-6-carboxamide] |  |  | 10 to 100 |
| CN(C)C(=O)c1ncc(NC(=O)N2C[C@@](C)(C(F)(F)F)c3c2cnc2cc(Cl)nn32)cc1C(F)F [compound 122, (R)-2-chloro-N-(5-(difluoromethyl)-6-(dimethylcarbamoyl)pyridin-3-yl)-8-methyl-8-(trifluoromethyl)-7,8-dihydro-6H-pyrazolo[1,5-a]pyrrolo[2,3-e]pyrimidine-6-carboxamide] |  | 10 to 100 | 10 to 100 |
| Cc1cc(NC(=O)N2C[C@@](C)(C(F)(F)F)c3c2cnc2cc(F)nn32)cnc1-n1nccn1 [compound 125, (R)-2-fluoro-8-methyl-N-(5-methyl-6-(2H-1,2,3-triazol-2-yl)pyridin-3-yl)-8-(trifluoromethyl)-7,8-dihydro-6H-pyrazolo[1,5-a]pyrrolo[2,3-e]pyrimidine-6-carboxamide] |  | 10 to 100 | 10 to 100 |
| CCN(C)C(=O)c1ncc(NC(=O)N2C[C@@](C)(C(F)(F)F)c3c2cnc2cc(Cl)nn32)cc1C(F)F [compound 149, (R)-2-chloro-N-(5-(difluoromethyl)-6-(ethyl(methyl)carbamoyl)pyridin-3-yl)-8-methyl-8-(trifluoromethyl)-7,8-dihydro-6H-pyrazolo[1,5-a]pyrrolo[2,3-e]pyrimidine-6-carboxamide] |  | 10 to 100 | 10 to 100 |
| CN(C(=O)c1ncc(NC(=O)N2C[C@@](C)(C(F)(F)F)c3c2cnc2cc(Cl)nn32)cc1C(F)F)C1CC1 [compound 151, (R)-2-chloro-N-(6-(cyclopropyl(methyl)carbamoyl)-5-(difluoromethyl)pyridin-3-yl)-8-methyl-8-(trifluoromethyl)-7,8-dihydro-6H-pyrazolo[1,5-a]pyrrolo[2,3-e]pyrimidine-6-carboxamide] |  | 10 to 100 | 10 to 100 |
